Data on four compounds can be found in patent US11547677B2, “Transmucosal delivery system for idebenone” (LTS LOHMANN THERAPIE-SYSTEME AG, priority 2017, dated 2023).

Where a name gives a salt, the structure may show the parent alone.

For data set [1] the following is noted: n-octanol/water; cited from earlier work.
For data set [2] the following is noted: oral administration; cited from earlier work.
A short description of data set [3]: Saturation concentration of idebenone in the inner, hydrophobic, phase (HPLC of supernatant). It counts as physicochemical. Particulars: in composition of the 2nd table (vitamin E, Polysorbate 80, methyl salicylate, eucalyptol, tributyl citrate, Brij S2). As for the experimental part:
Idebenone is added in excess to the inner, hydrophobic, phase, so that even after relatively long stirring solid dregs of active ingredient are still present. Then the dregs are removed by centrifuging. The resulting supernatant contains idebenone in its saturation concentration. This is determined by analysis for example by means of HPLC. The saturation concentration of idebenone for an exemplified composition according to the invention was determined as follows. [table]

For the compound `CC12CCC(CC1)C(C)(C)O2` [EUC, eucalyptol], the LogP entry in data set [1] was “LogP = 2.8”.

Consider `COC(=O)c1ccccc1O` [MS, methyl salicylate], for which the LogP result in data set [1] is reported as “LogP = 2.24”.

With `CCCCOC(=O)CC(O)(CC(=O)OCCCC)C(=O)OCCCC` [TBC, tributyl citrate], the LogP result in data set [1] is recorded as “LogP = 4.7”.

`COC1=C(OC)C(=O)C(CCCCCCCCCCO)=C(C)C1=O` [idebenone, 2-(10-hydroxydecyl)-5,6-dimethoxy-3-methyl-cyclohexa-2,5-diene-1,4-dione]: the “idebenone metabolised in the first-pass metabolism” value in data set [2] is “more than 98%”. Further, the saturation concentration in data set [3] (4° C.) came to 103 g/L; in data set [3] (room temperature), 145 g/L.
